Activity calls are given as the source filed them. The rule behind the calls is not given here.
Columns and labels:
[1] = target: 5-hydroxytryptamine receptor 2B (Homo sapiens) (UniProt P41595); details: Compound concentration 10.0 uM
[2] = target: 5-hydroxytryptamine receptor 1E (Homo sapiens) (UniProt P28566); details: Compound concentration 10.0 uM
[3] = target: D(2) dopamine receptor (Homo sapiens) (UniProt P14416); details: Compound concentration 10.0 uM
Histamine H2 receptor = Histamine H2 receptor (Homo sapiens, UniProt P25021); assay: GPCRScan assay: inhibition of H2; parameters: radioligand conc. used [nm] 0.02 – 0.05, parental cells Stable HEK
Rattus norvegicus = species on record: Rattus norvegicus; details: Compound concentration 10.0 uM
[4] = target: 5-hydroxytryptamine receptor 5A (Homo sapiens) (UniProt P47898); details: Compound concentration 10.0 uM
[5] = FLIPR Ca2+ assay (dog TRPA1); parameters: species or system Canis lupus familiaris
[6] = target: Glutamate NMDA receptor (Rattus norvegicus) (UniProt P35439+Q00959+Q00960+Q00961+Q62645+Q8VHN2+Q9R1M7); details: Compound concentration 10.0 uM
[7] = target: Sigma non-opioid intracellular receptor 1 (Homo sapiens) (UniProt Q99720); details: Compound concentration 10.0 uM
[8] = target: GABA-A receptor; anion channel (Rattus norvegicus) (UniProt O09028+P15431+P18506+P18508+P19969+P20236+P23574+P23576+P28471+P28473+P30191+P62813+P63079+P63138+Q91ZM7+Q9ES14); details: Compound concentration 10.0 uM
[9] = target: Glutamate receptor ionotropic, kainate (Rattus norvegicus) (UniProt P22756+Q01812+P42260+P42264+Q63273); assay: Inhibition of Glutamate, Kainate at 10 µM in the Eurofins-Panlabs radioligand binding assay (Eurofins_assay_232700); details: Compound concentration 10.0 uM
[10] = target: Cannabinoid receptor 2 (Homo sapiens) (UniProt P34972); details: Compound concentration 10.0 uM
[11] = target: Motilin receptor (Homo sapiens) (UniProt O43193); details: Compound concentration 10.0 uM
[12] = target: Potassium channel subfamily K member 9 (Homo sapiens, UniProt Q9NPC2); assay: Selectivity screen (KCNK9)
[13] = target: Sodium-dependent serotonin transporter (Homo sapiens) (UniProt P31645); details: Compound concentration 10.0 uM
[14] = FLIPR Ca2+ assay (monkey TRPA1)
[15] = target: D(2) dopamine receptor (Homo sapiens) (UniProt P14416); details: Compound concentration 10.0 uM; remark: listed apart in the source
[16] = target: D(2) dopamine receptor (Homo sapiens) (UniProt P14416); details: Compound concentration 10.0 uM; remark: listed apart in the source
[17] = target: T1, 5-hydroxytryptamine receptor 1A (Homo sapiens) (UniProt P08908); details: Compound concentration 10.0 uM
T1 sequence (whole entry): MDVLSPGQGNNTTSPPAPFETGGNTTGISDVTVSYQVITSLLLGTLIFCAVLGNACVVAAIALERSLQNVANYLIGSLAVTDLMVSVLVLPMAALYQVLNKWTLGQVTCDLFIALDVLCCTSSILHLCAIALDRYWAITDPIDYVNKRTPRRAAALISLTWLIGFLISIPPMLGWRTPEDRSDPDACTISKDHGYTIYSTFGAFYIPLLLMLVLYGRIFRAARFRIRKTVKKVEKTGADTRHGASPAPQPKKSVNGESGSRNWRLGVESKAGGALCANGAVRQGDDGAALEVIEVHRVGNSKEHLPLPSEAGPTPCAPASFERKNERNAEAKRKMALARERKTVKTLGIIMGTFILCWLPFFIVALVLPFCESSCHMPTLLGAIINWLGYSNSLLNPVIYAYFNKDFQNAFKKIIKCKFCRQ

[18] = target: Alpha-2A adrenergic receptor (Homo sapiens) (UniProt P08913); details: Compound concentration 10.0 uM
[19] = target: Kappa-type opioid receptor (Homo sapiens) (UniProt P41145); details: Compound concentration 10.0 uM
Chain of Kappa-type opioid receptor (Homo sapiens) (P41145 whole entry): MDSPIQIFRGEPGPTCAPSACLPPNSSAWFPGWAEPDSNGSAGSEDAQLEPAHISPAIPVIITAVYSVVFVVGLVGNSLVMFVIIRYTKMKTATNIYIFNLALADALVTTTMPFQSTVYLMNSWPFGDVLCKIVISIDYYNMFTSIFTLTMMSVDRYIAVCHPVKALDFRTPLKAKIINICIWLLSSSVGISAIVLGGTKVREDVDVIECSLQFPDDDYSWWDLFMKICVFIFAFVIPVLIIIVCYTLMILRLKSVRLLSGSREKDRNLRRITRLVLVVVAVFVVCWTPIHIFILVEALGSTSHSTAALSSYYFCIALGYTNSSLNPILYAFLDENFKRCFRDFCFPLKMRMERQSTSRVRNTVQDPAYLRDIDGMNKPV

Chain of D(2) dopamine receptor (Homo sapiens) (P14416 whole entry): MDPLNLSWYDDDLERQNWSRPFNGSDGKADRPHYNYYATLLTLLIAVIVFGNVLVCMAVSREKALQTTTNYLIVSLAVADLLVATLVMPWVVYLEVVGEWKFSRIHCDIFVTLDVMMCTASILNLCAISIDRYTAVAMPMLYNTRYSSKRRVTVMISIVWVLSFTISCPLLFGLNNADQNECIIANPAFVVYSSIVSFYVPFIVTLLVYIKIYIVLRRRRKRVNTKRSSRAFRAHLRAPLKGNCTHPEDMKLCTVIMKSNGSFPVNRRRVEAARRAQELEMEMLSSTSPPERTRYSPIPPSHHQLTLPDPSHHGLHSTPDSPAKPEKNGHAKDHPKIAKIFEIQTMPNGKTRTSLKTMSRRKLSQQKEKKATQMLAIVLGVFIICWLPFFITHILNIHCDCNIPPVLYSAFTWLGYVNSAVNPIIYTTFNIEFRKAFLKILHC
Chain of Alpha-2A adrenergic receptor (Homo sapiens) (P08913 whole entry): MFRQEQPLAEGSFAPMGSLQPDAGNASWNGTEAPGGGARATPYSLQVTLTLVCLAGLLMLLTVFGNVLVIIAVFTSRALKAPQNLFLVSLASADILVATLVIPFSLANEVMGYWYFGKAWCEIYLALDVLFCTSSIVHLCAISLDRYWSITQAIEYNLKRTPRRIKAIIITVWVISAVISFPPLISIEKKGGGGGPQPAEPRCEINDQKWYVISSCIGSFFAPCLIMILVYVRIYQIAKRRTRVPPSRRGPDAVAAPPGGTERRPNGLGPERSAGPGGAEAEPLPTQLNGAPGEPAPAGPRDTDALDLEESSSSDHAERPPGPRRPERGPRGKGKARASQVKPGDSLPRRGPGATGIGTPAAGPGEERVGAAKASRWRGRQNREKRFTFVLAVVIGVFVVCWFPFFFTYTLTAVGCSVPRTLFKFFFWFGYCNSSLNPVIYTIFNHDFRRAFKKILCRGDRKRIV
Chain of Sodium-dependent serotonin transporter (Homo sapiens) (P31645 whole entry, looked up): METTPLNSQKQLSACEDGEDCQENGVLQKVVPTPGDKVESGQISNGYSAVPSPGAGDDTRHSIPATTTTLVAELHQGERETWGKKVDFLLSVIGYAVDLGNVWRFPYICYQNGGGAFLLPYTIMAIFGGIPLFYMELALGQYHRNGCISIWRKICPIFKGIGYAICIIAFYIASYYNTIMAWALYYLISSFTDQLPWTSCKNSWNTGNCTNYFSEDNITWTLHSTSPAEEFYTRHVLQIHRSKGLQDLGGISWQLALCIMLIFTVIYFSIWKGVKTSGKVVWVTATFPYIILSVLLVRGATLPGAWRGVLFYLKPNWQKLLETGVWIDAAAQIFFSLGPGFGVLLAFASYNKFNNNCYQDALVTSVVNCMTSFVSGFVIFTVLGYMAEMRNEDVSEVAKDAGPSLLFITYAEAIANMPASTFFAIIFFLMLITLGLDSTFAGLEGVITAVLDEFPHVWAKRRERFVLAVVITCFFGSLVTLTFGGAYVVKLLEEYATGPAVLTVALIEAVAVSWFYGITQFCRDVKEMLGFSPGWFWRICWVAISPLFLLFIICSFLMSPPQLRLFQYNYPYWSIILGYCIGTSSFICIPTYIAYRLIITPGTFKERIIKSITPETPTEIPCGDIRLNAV
Chain of Histamine H2 receptor (P25021 whole entry): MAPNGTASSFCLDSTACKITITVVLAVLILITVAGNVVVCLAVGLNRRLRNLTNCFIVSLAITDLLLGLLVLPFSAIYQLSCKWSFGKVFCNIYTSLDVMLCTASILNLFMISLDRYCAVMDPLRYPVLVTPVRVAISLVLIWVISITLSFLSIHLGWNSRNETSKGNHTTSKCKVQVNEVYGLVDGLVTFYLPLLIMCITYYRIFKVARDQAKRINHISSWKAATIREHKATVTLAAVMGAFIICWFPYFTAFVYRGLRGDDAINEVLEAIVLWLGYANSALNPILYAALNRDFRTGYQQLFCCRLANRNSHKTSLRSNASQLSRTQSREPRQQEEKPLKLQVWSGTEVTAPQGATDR
Chain of 5-hydroxytryptamine receptor 5A (Homo sapiens) (P47898 whole entry): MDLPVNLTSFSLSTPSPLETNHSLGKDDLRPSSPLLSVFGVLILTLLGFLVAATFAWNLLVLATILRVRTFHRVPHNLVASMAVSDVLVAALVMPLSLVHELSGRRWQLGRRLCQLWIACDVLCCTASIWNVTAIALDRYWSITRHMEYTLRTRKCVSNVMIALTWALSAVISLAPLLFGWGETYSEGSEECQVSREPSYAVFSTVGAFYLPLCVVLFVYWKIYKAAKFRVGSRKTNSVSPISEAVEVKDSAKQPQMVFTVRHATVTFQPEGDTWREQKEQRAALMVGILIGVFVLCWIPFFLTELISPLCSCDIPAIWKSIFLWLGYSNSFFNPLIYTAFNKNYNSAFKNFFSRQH
Chain of Motilin receptor (Homo sapiens) (O43193 whole entry): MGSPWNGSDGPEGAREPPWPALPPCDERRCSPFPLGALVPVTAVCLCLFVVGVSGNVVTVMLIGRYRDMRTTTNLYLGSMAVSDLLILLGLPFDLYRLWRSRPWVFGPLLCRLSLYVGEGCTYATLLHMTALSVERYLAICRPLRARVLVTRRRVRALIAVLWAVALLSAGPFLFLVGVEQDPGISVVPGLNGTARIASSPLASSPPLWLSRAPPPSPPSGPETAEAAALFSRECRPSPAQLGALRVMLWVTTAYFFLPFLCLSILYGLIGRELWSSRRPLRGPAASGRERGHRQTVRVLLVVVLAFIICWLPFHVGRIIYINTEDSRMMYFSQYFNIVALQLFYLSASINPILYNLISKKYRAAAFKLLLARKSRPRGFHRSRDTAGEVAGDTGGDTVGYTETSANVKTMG
Chain of Sigma non-opioid intracellular receptor 1 (Homo sapiens) (Q99720 whole entry): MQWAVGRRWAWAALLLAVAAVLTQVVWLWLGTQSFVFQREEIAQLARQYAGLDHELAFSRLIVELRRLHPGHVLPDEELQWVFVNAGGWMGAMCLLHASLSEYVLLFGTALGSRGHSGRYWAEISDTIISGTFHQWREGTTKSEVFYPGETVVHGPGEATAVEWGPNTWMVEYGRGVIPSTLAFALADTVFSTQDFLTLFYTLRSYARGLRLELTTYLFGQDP
Chain of Potassium channel subfamily K member 9 (Q9NPC2 whole entry): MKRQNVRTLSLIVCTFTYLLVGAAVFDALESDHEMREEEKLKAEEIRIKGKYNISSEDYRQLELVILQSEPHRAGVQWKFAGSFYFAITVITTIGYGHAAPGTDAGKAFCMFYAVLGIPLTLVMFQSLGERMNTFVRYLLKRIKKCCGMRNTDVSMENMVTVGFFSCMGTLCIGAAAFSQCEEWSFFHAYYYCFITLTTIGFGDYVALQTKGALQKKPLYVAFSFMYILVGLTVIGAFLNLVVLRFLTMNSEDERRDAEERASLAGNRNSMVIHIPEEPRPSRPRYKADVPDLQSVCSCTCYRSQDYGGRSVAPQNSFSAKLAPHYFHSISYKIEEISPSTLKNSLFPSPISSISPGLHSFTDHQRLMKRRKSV
Chain of 5-hydroxytryptamine receptor 2B (Homo sapiens) (P41595 whole entry): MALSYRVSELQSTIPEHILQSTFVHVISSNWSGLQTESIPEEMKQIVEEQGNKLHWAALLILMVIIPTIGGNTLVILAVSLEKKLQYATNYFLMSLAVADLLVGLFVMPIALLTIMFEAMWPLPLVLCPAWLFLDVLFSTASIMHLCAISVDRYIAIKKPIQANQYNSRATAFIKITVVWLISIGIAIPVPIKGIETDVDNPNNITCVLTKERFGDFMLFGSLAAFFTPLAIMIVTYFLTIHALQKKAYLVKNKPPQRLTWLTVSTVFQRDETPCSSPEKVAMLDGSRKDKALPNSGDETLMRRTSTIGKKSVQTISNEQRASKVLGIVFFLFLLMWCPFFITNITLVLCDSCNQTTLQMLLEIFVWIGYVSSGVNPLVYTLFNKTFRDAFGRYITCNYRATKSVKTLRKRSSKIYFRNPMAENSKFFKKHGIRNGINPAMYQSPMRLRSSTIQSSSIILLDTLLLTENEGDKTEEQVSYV
Chain of 5-hydroxytryptamine receptor 1E (Homo sapiens) (P28566 whole entry): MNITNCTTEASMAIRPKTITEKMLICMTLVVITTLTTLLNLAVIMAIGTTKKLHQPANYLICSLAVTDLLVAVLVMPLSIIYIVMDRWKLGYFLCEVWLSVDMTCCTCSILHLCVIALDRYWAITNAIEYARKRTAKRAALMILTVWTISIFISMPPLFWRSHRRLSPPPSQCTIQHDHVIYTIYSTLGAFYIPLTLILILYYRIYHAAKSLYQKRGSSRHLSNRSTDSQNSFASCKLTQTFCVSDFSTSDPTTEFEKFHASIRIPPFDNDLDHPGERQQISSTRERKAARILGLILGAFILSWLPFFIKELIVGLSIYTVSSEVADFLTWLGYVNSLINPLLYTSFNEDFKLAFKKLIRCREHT
Chain of Cannabinoid receptor 2 (Homo sapiens) (P34972 whole entry): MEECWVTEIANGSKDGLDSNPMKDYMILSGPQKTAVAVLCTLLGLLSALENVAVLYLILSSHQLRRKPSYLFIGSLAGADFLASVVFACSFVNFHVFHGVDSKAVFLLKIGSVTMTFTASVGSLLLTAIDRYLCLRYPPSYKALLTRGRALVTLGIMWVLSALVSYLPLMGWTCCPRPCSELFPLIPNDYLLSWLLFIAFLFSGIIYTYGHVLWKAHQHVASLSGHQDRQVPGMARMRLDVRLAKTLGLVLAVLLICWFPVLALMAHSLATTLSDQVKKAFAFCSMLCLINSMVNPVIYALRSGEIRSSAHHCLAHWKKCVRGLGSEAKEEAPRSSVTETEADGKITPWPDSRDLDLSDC

Compound: COc1cc(N[C@@H]2CCCC[C@]2(O)C(F)(F)F)ccc1F [BAY-9897]
- inhibition [1]: 18%
- inhibition [2]: -4.13%
- inhibition [3]: -4.34%
- Ki (Histamine H2 receptor): 9.78 µM

Compound: O[C@]1(C(F)(F)F)CCCC[C@H]1Nc1ccc(F)cc1 [BAY-390]
- inhibition (Rattus norvegicus): -5%
- inhibition [4]: -7.74%
- IC50 [5]: 0.081 µM (active)
- inhibition [6]: 9%
- inhibition [7]: 36.2%
- inhibition [8]: -8%
- inhibition [9]: -3%
- inhibition [10]: 21%
- inhibition [11]: 13%
- IC50 [12]: > 25 µM (not active)
- inhibition [13]: 3%
- IC50 [14]: 0.019 µM (active)
- inhibition [15]: 12%
- inhibition [16]: 13%
- inhibition [17]: 10%
- inhibition [18]: 7%
- inhibition [19]: 7%

From ChEMBL document CHEMBL4507328, “Data for DCP probe BAY-390” (2021)
